Data as given in ChEMBL document CHEMBL1127143, “New -lactam homologs of penems” (1993).
In brackets after ≈: the same amount, converted by molar mass.

Columns and labels:
actinomadura species = assay: Compound was tested for percent inhibition of D,D - Carboxypeptidase from Actinomadura sp. R39 at 100 uM concentration
Staphylococcus aureus = assay: Minimum inhibitory concentration for the antibacterial activity against Staphylococcus aureus; assay type: functional

## CCSC1=C(C(=O)O)N2C(=O)C(NC(=O)Cc3ccccc3)CC2S1 (configuration not stated)
Actinomadura species
  inhibition: 15%
Staphylococcus aureus
  MIC: 320 µg/mL (≈ 845 µM)
